Patent US10653672B2, “Myogenesis promotor, muscle atrophy inhibitor, medical composition and TAZ activator” (National University Corporation Tokyo Medical and Dental …, priority 2014, dated 2020)

What was measured:
[1] = test system: C2C12 cells; experiment: Evaluation of myogenesis of C2C12 cells by fusion index; type: cell-based, mouse; details: differentiation condition 72 hours, DMSO as 1, average of three
Method: (1) C2C12 cells were grown to confluence under growth condition, and then in differentiation condition for 72 hours, in a culture medium added with DMSO, IBS008738 (exemplary compound 1) or exemplary compounds 2 to 44, at a concentration of 1 μM, 3 μM or 10 μM, respectively. Thereafter, the degree of myogenesis was evaluated by a fusion index (a value obtained by dividing the number of nuclei detected in multinucleated myosin heavy chain (MHC)-positive cells by the total number of the nuclei). Specifically, exemplary compounds were divided into five groups, and DMSO and IBS008738 were evaluated in each group as controls. The evaluation was conducted three times, and the average value and the standard deviation of the fusion index was relativized with the measured value of DMSO as 1.
C2C12 cells were passaged in a growth medium (DMEM containing 10% FBS) and differentiated in a differentiation medium (DMEM containing 2% horse serum (Invitrogen)).

[2] = test system: SMAD reporter; experiment: Luciferase reporter assay, SMAD reporter; type: cell-based; details: Mus musculus, C2C12, 24 h, C2C12 cells expressing reporter and TAZ WT, differentiation medium 24 hours
Method: (§1) The effect and its degree on the activity of a reporter, derived from a transcription factor that interacts with TAZ in C2C12 cells, were evaluated. Specifically, C2C12 cells expressing luciferase reporters corresponding to MyoD, TEAD, SMAD and Pax3 and C2C12 cells expressing these luciferase reporters and TAZ were cultured in a culture medium added with IBS008738 or DMSO at a concentration of 10 μM, respectively. […] The line and the error bar indicate the average value and the standard error, *p<0.05, **p<0.01, ns refers to not significant.
(§2) Transfection of the luciferase reporters was performed to the C2C12 cells after being plated at 12-well plates (1×10^5 cells/well) and cultured overnight. As the luciferase reporters, pGL3 Myo-184- (MyoD-), 8×GT-IIC-δ51LucII- (TEAD-), 9×CAGA-MLP-(SMAD-), and p(PRS-1/-4)3- (Pax3-) were transfected to the cells alone or with TAZ. These reporter vectors were from Keiji Miyazawa (Yamanashi University), Hiroshi Sasaki (Kumamoto University) and Hiroki Kurihara (The University of Tokyo).
(§3) Immediately after the transfection, DMSO or IBS008738 was added at a concentration of 10 μM, respectively. After growing the cells to confluence, the cells were transferred to a differentiation medium with DMSO or IBS008738, and cultured for 24 hours before the luciferase assay.

[3] = test system: TEAD reporter; experiment: Luciferase reporter assay, TEAD reporter; type: cell-based; details: Mus musculus, C2C12, 24 h, C2C12 cells expressing reporter and TAZ WT, differentiation medium 24 hours
Method: as §1, §2, §3

Cc1ccc(-n2cnc(/N=C/N3CCOCC3)c2C(=O)c2ccccc2)cc1 [exemplary compound 1]
relative fusion index (FI) ([1]; Group 1, 1 μM): 1.47 | relative fusion index (FI) ([1]; Group 1, 3 μM): 1.89 | relative fusion index (FI) ([1]; Group 1, 10 μM): 2.00 | relative fusion index (FI) ([1]; Group 2, 1 μM): 1.33 | relative fusion index (FI) ([1]; Group 2, 3 μM): 1.80 | relative fusion index (FI) ([1]; Group 2, 10 μM): 2.03 | relative fusion index (FI) ([1]; Group 3, 1 μM): 1.28 | relative fusion index (FI) ([1]; Group 3, 3 μM): 1.67 | relative fusion index (FI) ([1]; Group 3, 10 μM): 1.76 | relative fusion index (FI) ([1]; Group 4, 1 μM): 1.13 | relative fusion index (FI) ([1]; Group 4, 3 μM): 1.53 | relative fusion index (FI) ([1]; Group 4, 10 μM): 1.68 | relative fusion index (FI) ([1]; Group 5, 1 μM): 1.10 | relative fusion index (FI) ([1]; Group 5, 3 μM): 1.18 | relative fusion index (FI) ([1]; Group 5, 10 μM): 1.33 | fold induction at 10 µM [2]: 2.09 | fold induction at 10 µM [3]: 8.41
